Experimental data published in ChEMBL document CHEMBL3046319, “PCR-RFLP detection of the E198A mutation conferring resistance to benzimidazoles in field isolates of Monilinia laxa from Greece” (Crop Prot, 2012).
≈ marks a conversion by molar mass, not a printed value. Calls of active or inactive are those of the source. The calls are words filed in the database; no cut-off is given here.

Legend:
Monilinia laxa [1] = test: Fungicidal activity against Monilinia laxa isolate MLK12 assessed as reduction in mycelial growth rate at 1 to 10 ug/ml at 31 degC after 5 days; format: functional, organism-based
Monilinia laxa [2] = test: Fungicidal activity against Monilinia laxa isolate MLK9 assessed as reduction in mycelial growth rate at 1 to 10 ug/ml at 31 degC after 5 days; format: functional, organism-based
Monilinia laxa [3] = test: Fungicidal activity against Monilinia laxa isolate MLK8 assessed as reduction in mycelial growth rate at 1 to 10 ug/ml at 31 degC after 5 days; format: functional, organism-based
Monilinia laxa [4] = test: Fungicidal activity against Monilinia laxa isolate MLK6 assessed as reduction in mycelial growth rate at 1 to 10 ug/ml at 31 degC after 5 days; format: functional, organism-based
Monilinia laxa [5] = test: Fungicidal activity against Monilinia laxa isolate MLK4A assessed as reduction in mycelial growth rate at 1 to 10 ug/ml at 31 degC after 5 days; format: functional, organism-based
Monilinia laxa [6] = test: Fungicidal activity against Monilinia laxa isolate MLK1 assessed as reduction in mycelial growth rate at 1 to 10 ug/ml at 31 degC after 5 days; format: functional, organism-based
Monilinia laxa [7] = test: Fungicidal activity against Monilinia laxa isolate MLG3 assessed as reduction in mycelial growth rate at 1 to 10 ug/ml at 31 degC after 5 days; format: functional, organism-based
Monilinia laxa [8] = test: Fungicidal activity against Monilinia laxa isolate MLG2 assessed as reduction in mycelial growth rate at 1 to 10 ug/ml at 31 degC after 5 days; format: functional, organism-based
Monilinia laxa [9] = test: Fungicidal activity against Monilinia laxa isolate MLC2 assessed as reduction in mycelial growth rate at 1 to 10 ug/ml at 31 degC after 5 days; format: functional, organism-based
Monilinia laxa [10] = test: Fungicidal activity against Monilinia laxa isolate MLBO8 assessed as reduction in mycelial growth rate at 1 to 10 ug/ml at 31 degC after 5 days; format: functional, organism-based
Monilinia laxa [11] = test: Fungicidal activity against Monilinia laxa isolate MLC2 assessed as mean number of conidia produced in the colony at 25 degC after 12 days by haemocytometer; format: functional
Monilinia laxa [12] = test: Fungicidal activity against Monilinia laxa isolate MLBO5 assessed as mean number of conidia produced in the colony at 25 degC after 12 days by haemocytometer; format: functional
Monilinia laxa [13] = test: Fungicidal activity against Monilinia laxa isolate MLG1 assessed as mean number of conidia produced in the colony at 25 degC after 12 days by haemocytometer; format: functional
Monilinia laxa [14] = test: Fungicidal activity against Monilinia laxa isolate MLK1 assessed as mean mycelial colony diameter at 25 degC after 4 days; format: functional
Monilinia laxa [15] = test: Fungicidal activity against Monilinia laxa isolate MLC2 assessed as mean mycelial colony diameter at 25 degC after 4 days; format: functional
Monilinia laxa [16] = test: Fungicidal activity against Monilinia laxa isolate MLP2 assessed as mean mycelial colony diameter at 25 degC after 4 days; format: functional
Monilinia laxa [17] = test: Fungicidal activity against Monilinia laxa isolate MLBO2 assessed as mean mycelial colony diameter at 25 degC after 4 days; format: functional
Monilinia laxa [18] = test: Fungicidal activity against Monilinia laxa isolate MLK1 assessed as mycelial growth at 1 ug/ml at 25 degC after 4 days; format: functional
Monilinia laxa [19] = test: Fungicidal activity against Monilinia laxa isolate KX5 assessed as reduction in mycelial growth rate at 1 to 10 ug/ml at 28 degC after 8 days; format: functional, organism-based
Monilinia laxa [20] = test: Fungicidal activity against Monilinia laxa isolate MLNS2 assessed as reduction in mycelial growth rate at 1 to 10 ug/ml at 28 degC after 8 days; format: functional, organism-based
Monilinia laxa [21] = test: Fungicidal activity against Monilinia laxa isolate MLK6 assessed as reduction in mycelial growth rate at 1 to 10 ug/ml at 28 degC after 8 days; format: functional, organism-based
Monilinia laxa [22] = test: Fungicidal activity against Monilinia laxa isolate MLK5 assessed as reduction in mycelial growth rate at 1 to 10 ug/ml at 28 degC after 8 days; format: functional, organism-based
Monilinia laxa [23] = test: Fungicidal activity against Monilinia laxa isolate MLK2 assessed as reduction in mycelial growth rate at 1 to 10 ug/ml at 28 degC after 8 days; format: functional, organism-based
Monilinia laxa [24] = test: Fungicidal activity against Monilinia laxa isolate MLK4 assessed as reduction in mycelial growth rate at 1 to 10 ug/ml at 28 degC after 8 days; format: functional, organism-based
Monilinia laxa [25] = test: Fungicidal activity against Monilinia laxa isolate MLC2 assessed as reduction in mycelial growth rate at 1 to 10 ug/ml at 28 degC after 8 days; format: functional, organism-based
Monilinia laxa [26] = test: Fungicidal activity against Monilinia laxa isolate MLAl8 assessed as reduction in mycelial growth rate at 1 to 10 ug/ml at 28 degC after 8 days; format: functional, organism-based
Monilinia laxa [27] = test: Fungicidal activity against Monilinia laxa isolate MLC3 assessed as reduction in mycelial growth rate at 25 degC after 4 days; format: functional, organism-based; conditions: isolate MLC3, 96 h
Monilinia laxa [28] = test: Fungicidal activity against Monilinia laxa isolate KX4 assessed as reduction in mycelial growth rate at 1 to 10 ug/ml at 25 to 28 degC; format: functional, organism-based
Monilinia laxa [29] = test: Fungicidal activity against Monilinia laxa isolate MLNS2 assessed as reduction in mycelial growth rate at 1 to 10 ug/ml at 25 to 28 degC; format: functional, organism-based
Monilinia laxa [30] = test: Fungicidal activity against Monilinia laxa isolate MLNS1 assessed as reduction in mycelial growth rate at 1 to 10 ug/ml at 25 to 28 degC; format: functional, organism-based
Monilinia laxa [31] = test: Fungicidal activity against Monilinia laxa isolate MLP7 assessed as reduction in mycelial growth rate at 1 to 10 ug/ml at 25 to 28 degC; format: functional, organism-based
Monilinia laxa [32] = test: Fungicidal activity against Monilinia laxa isolate MLK12 assessed as reduction in mycelial growth rate at 1 to 10 ug/ml at 25 to 28 degC; format: functional, organism-based
Monilinia laxa [33] = test: Fungicidal activity against Monilinia laxa isolate MLK2 assessed as reduction in mycelial growth rate at 1 to 10 ug/ml at 25 to 28 degC; format: functional, organism-based
Monilinia laxa [34] = test: Fungicidal activity against Monilinia laxa isolate MLKS1 assessed as reduction in mycelial growth rate at 25 degC after 4 days; format: functional, organism-based; conditions: isolate MLKS1, 96 h
Monilinia laxa [35] = test: Fungicidal activity against Monilinia laxa isolate MLBO6 assessed as reduction in mycelial growth rate at 1 to 10 ug/ml at 31 degC after 5 days; format: functional, organism-based
Monilinia laxa [36] = test: Fungicidal activity against Monilinia laxa isolate MLG1 in prune fruits assessed as virulence treated 10 min prior to mycelial inoculation at 24 degC after 10 days relative to isolate MLX1by pathogenicity bioassay; format: functional
Monilinia laxa [37] = test: Fungicidal activity against Monilinia laxa isolate MLX2 assessed as reduction in mycelial growth rate at 1 to 10 ug/ml at 31 degC after 5 days; format: functional, organism-based
Monilinia laxa [38] = test: Fungicidal activity against Monilinia laxa isolate MLP4 assessed as reduction in mycelial growth rate at 25 degC after 4 days; format: functional, organism-based; conditions: isolate MLP4, 96 h
Monilinia laxa [39] = test: Fungicidal activity against Monilinia laxa isolate MLK12 assessed as reduction in mycelial growth rate at 25 degC after 4 days; format: functional, organism-based; conditions: isolate MLK12, 96 h
Monilinia laxa [40] = test: Fungicidal activity against Monilinia laxa isolate MLK10 assessed as reduction in mycelial growth rate at 25 degC after 4 days; format: functional, organism-based; conditions: isolate MLK10, 96 h
Monilinia laxa [41] = test: Fungicidal activity against Monilinia laxa isolate MLK7 assessed as reduction in mycelial growth rate at 25 degC after 4 days; format: functional, organism-based; conditions: isolate MLK7, 96 h
Monilinia laxa [42] = test: Fungicidal activity against Monilinia laxa isolate MLK1 assessed as reduction in mycelial growth rate at 25 degC after 4 days; format: functional, organism-based; conditions: isolate MLK1, 96 h

What does the source list for `COC(=O)Nc1nc2ccccc2[nH]1` [CARBENDAZIM]?
inhibition (Monilinia laxa [1]): Active; inhibition (Monilinia laxa [2]): Active; inhibition (Monilinia laxa [3]): Active; inhibition (Monilinia laxa [4]): Active; inhibition (Monilinia laxa [5]): Active; inhibition (Monilinia laxa [6]): Active; inhibition (Monilinia laxa [7]): Active; inhibition (Monilinia laxa [8]): Active; inhibition (Monilinia laxa [9]): Active; inhibition (Monilinia laxa [10]): Active; Activity (Monilinia laxa [11]): 5 /cm2; Activity (Monilinia laxa [12]): 3.92 /cm2; Activity (Monilinia laxa [13]): 5.85 /cm2; Activity (Monilinia laxa [14]): 30.55 mm; Activity (Monilinia laxa [15]): 29.5 mm; Activity (Monilinia laxa [16]): 25.5 mm; Activity (Monilinia laxa [17]): 30.2 mm; Activity (Monilinia laxa [18]): 99.9%; inhibition (Monilinia laxa [19]): inactive; inhibition (Monilinia laxa [20]): inactive; inhibition (Monilinia laxa [21]): inactive; inhibition (Monilinia laxa [22]): inactive; inhibition (Monilinia laxa [23]): inactive; inhibition (Monilinia laxa [24]): inactive; inhibition (Monilinia laxa [25]): inactive; inhibition (Monilinia laxa [26]): inactive; EC50 (Monilinia laxa [27]): > 50 µg/mL; inhibition (Monilinia laxa [28]): inactive; inhibition (Monilinia laxa [29]): inactive; inhibition (Monilinia laxa [30]): inactive; inhibition (Monilinia laxa [31]): inactive; inhibition (Monilinia laxa [32]): inactive; inhibition (Monilinia laxa [33]): inactive; EC50 (Monilinia laxa [34]): 0.11 µg/mL (≈ 0.575 µM); inhibition (Monilinia laxa [35]): Active; Activity (Monilinia laxa [36]): 100%; inhibition (Monilinia laxa [37]): Active; EC50 (Monilinia laxa [38]): > 50 µg/mL; EC50 (Monilinia laxa [39]): > 50 µg/mL; EC50 (Monilinia laxa [40]): 0.07 µg/mL (≈ 0.366 µM); EC50 (Monilinia laxa [41]): 0.08 µg/mL (≈ 0.418 µM); EC50 (Monilinia laxa [42]): > 50 µg/mL
